Measurements reported in EP3409278B1, “HETEROCYCLIC PROTEIN KINASE INHIBITORS” (Tolero Pharmaceuticals, Inc., priority 2011, dated 2013).
pIC50: −log10 of the molar value. Where two headings read alike, the source gives them in different places.

Target: Pim-1 kinase (Homo sapiens, UniProt P11309)
Experiment: Pim-1 kinase inhibition assay (Promega Kinase-Glo)
Assay type: biochemical
Text: One illustrative manner in which Pim-1 kinase activity can be determined is by quantifying the amount of ATP remaining in solution after an in vitro Pim-1 kinase reaction. The Kinase-Glo Assay Kit (Promega, Inc., Madison, WI) allows this. The amount of ATP remaining in the solution after the kinase reaction serves as a substrate for the luciferase to catalyze luciferin to oxyluciferin plus one photon of light. Thus, the luminescent signal read by the Luminoskan Ascent Instrument (Thermo Electron Corp., Milford, MA) correlates with the amount of ATP present after the kinase reaction and inversely correlates with the amount of kinase acitivity. […] These assays are set up in duplicate 50ul volumes in white, flat bottom 96 well plates. […] This solution is incubated at 30 degrees Celsius at 360rpm for two hours. Following the incubation, 50ul of Kinase-Glo reagent is added to each well, including all positive and negative control wells, and incubated at room temperature for 15 minutes. […] The IC50 values can then be calculated for each inhibitor tested.

[1] = Table IV, Kinase-Glo, 10uM ATP, read-out: IC50 on Pim1

Pim-1 kinase, sequence (P11309 whole entry): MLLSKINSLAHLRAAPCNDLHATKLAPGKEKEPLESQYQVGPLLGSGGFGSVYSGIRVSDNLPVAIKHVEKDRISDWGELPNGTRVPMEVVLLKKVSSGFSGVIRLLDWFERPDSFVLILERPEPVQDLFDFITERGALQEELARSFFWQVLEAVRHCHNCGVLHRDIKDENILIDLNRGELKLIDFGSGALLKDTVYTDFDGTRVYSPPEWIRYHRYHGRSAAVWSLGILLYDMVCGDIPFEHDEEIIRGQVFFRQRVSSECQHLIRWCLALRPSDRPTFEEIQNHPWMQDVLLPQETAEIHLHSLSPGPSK

Compound	pIC50 [1]	pIC50
CC1(O)CCC(Nc2ccn3ncc(-c4cccc(C(F)(F)F)c4)c3n2)CC1 (single isomer, unassigned) [8-55, 1-Methyl-4-((3-(3-(trifluoromethyl)phenyl)pyrazolo[1,5-a]pyrimidin-5-yl)amino)-trans-cyclohexanol]	7.27	
CC(C)(O)CCNc1ccc2ncc(-c3cccc(OC(F)(F)F)c3)n2n1 [8-3, 2-Methyl-4-((3-(3-(trifluoromethoxy)phenyl)imidazo[1,2-b]pyridazin-6-yl)amino)butan-2-ol]	7.52	
O[C@H]1CC[C@H](Oc2ccc3ncc(-c4cccc(OC(F)(F)F)c4)n3n2)CC1 [8-4, 4-((3-(3-(Trifluoromethoxy)phenyl)imidazo[1,2-b]pyridazin-6-yl)oxy)-trans-cyclohexanol]	8.15	
O[C@@H]1CC[C@@H](Nc2ccc3ncc(-c4cccc(OC(F)(F)F)c4)n3n2)C1 [8-5, (1R,3R)3-((3-(3-(Trifluoromethoxy)phenyl)imidazo[1,2-b]pyridazin-6-yl)amino)cyclopentanol]	7.44	
CC(C)(O)CNc1ccc2ncc(-c3cccc(OC(F)(F)F)c3)n2n1 [8-6, 2-Methyl-1-((3-(3-(trifluoromethoxy)phenyl)imidazo[1.2-b]pyridazin-6-yl)amino)propan-2-ol]	7.52	
O[C@H]1C[C@H](CNc2ccc3ncc(-c4cccc(OC(F)(F)F)c4)n3n2)C1 [8-7, 3-(((3-(3-(Trifluoromethoxy)phenyl)imidazo[1,2-b]pyridazin-6-yl)amino)methyl)-trans-cyclobutanol]	8.00	
O=S1(=O)CCC(Nc2ccc3ncc(-c4cccc(OC(F)(F)F)c4)n3n2)CC1 [8-14, 4-((3-(3-(Trifluoromethoxy)pheny/)imidazo[1,2-]pyridazin-6-yl)amino)tetrahydro-2H-thiopyran 1,1-dioxide]	5.92	
O=S1(=O)CCN(c2ccc3ncc(-c4cccc(OC(F)(F)F)c4)n3n2)CC1 [8-15, 4-(3-(3-(Trifluoromethoxy)phenyl)imidazo[1,2-b]pyridazin-6-yl)thiomorpholine 1,1-dioxide]	5.55	
CC(C)O[C@H]1CC[C@H](Nc2ccc3ncc(-c4cccc(OC(F)(F)F)c4)n3n2)CC1 [8-16, 4-(trans-Isopropoxycyclohexyl)-3-(3-(trifluoromethoxy)phenyl)imidazo[1,2-b]pyridazin-6-amine]	6.30	
FC1(F)CCC(CNc2ccc3ncc(-c4cccc(OC(F)(F)F)c4)n3n2)CC1 [8-17, N-((4,4-difluorocyclohexyl)methyl)-3-(3-(trifluoromethoxy)phenyl)imidazo[1,2-b]pyridazin-6-amine]		6.76
FC(F)(F)Oc1cccc(-c2cnc3ccc(NCC4CCSCC4)nn23)c1 [8-18, N-((tetrahydro-2H-thiopyran-4-yl)methyl)-3-(3-(trifluoromethoxy)phenyl)imidazo[1,2-b]pyridazin-6-amine]	7.28	
FC(F)(F)Oc1cccc(-c2cnc3ccc(NCC4CCOCC4)nn23)c1 [8-19, N-((tetrahydro-2H-pyran-4-yl)methyl)-3-(3-(trifluoromethoxy)phenyl)imidazo[1,2-b]pyridazin-6-amine]	7.89	
CC(C)(O)C(=O)N1CCC(CNc2ccc3ncc(-c4cccc(OC(F)(F)F)c4)n3n2)CC1 [8-20, 2-Hydroxy-2-methyl-1-(4-(((3-(3-(trifluoromethoxy)phenyl)imidazo[1,2-b]pyridazin-6-yl)amino)methyl)piperidin-1-yl)propan-1-one]	7.80	
O=C(CN1CCOCC1)N1CCC(CNc2ccc3ncc(-c4cccc(OC(F)(F)F)c4)n3n2)CC1 [8-21, 2-Morpholino-1-(4-(((3-(3-(trifluoromethoxy)phenyl)imidazo[1,2-b]pyridazin-6-yl)amino)methyl)piperidin-1-yl)ethanone]	7.34	
O=C1CC(CNc2ccc3ncc(-c4cccc(OC(F)(F)F)c4)n3n2)CCN1 (stereo not drawn) [8-23, 4-(((3-(3-(Trifluoromethoxy)phenyl)imidazo[1,2-b]pyridazin-6-yl)amino)methyl)piperidin-2-one]	5.79	
NCC1CCN(c2ccc3ncc(-c4cccc(OC(F)(F)F)c4)n3n2)C(=O)C1 (stereo not drawn) [8-24, 4-(Aminomethyl)-1-(3-(3-(trifluoromethoxy)phenyl)imidazo[1,2-b]pyridazin-6-y/)piperidin-2-one]	7.47	
N[C@H]1CCCN(c2ccc3ncc(-c4cccc(OC(F)(F)F)c4)n3n2)C1 [8-25, (S)-1-(3-(3-(Trifluoromethoxy)phenyl)imidazo[1,2-b]pyridazin-6-yl)piperidin-3-amine]	7.52	
OCCN1CCC(CNc2ccc3ncc(-c4cccc(OC(F)(F)F)c4)n3n2)CC1 [8-27, 2-(4-(((3-(3-(Trifluoromethoxy)phenyl)imidazo[1,2-b]pyridazin-6-yl)amino)methyl)piperidin-1-yl)ethanol]		7.64
FC(F)(F)Oc1cccc(-c2cnc3ccc(OCC4CCOCC4)nn23)c1 [8-28, 6-((Tetrahydro-2H-pyran-4-yl)methoxy)-3-(3-(trifluoromethoxy)phenyl)imidazo[1,2-b]pyridazine]	6.26	
FC(F)(F)c1cccc(-c2cnc3ccc(NC4CCOCC4)nn23)c1 [8-33, N-(Tetrahydro-2H-pyran-4-yl)-3-(3-(trifluoromethyl)phenyl)imidazo[1,2-b]pyridazin-6-amine]	7.48	

Compound	pIC50 [1]	pIC50
CO[C@H]1CC[C@H](Nc2ccc3ncc(-c4cccc(Cl)c4)n3n2)CC1 [8-38, 3-(3-Chlorophenyl)-N-(4-trans-methoxycyclohexyl)imidazo[1,2-b]pyridazin-6-amine]	7.74	
Clc1cccc(-c2cnc3ccc(NC4CCOCC4)nn23)c1 [8-39, 3-(3-Chlorophenyl)-N-(tetrahydro-2H-pyran-4-yl)imidazo[1,2-b]pyridazin-6-amine]	7.32	
O=S1(=O)CCC(CNc2ccc3ncc(-c4cccc(Cl)c4)n3n2)CC1 [8-40]	6.70	
CC(C)(O)CCOc1ccc2ncc(-c3cccc(OC(F)(F)F)c3)n2n1 [8-41, 2-Methyl-4-((3-(3-(Trifluoromethoxy)phenyl)imidazo[1,2-b]pyridazin-6-yl)oxy)butan-2-ol]	6.65	
COCCOc1ccc2ncc(-c3cccc(OC(F)(F)F)c3)n2n1 [8-42, 6-(2-Methoxyethoxy)-3-(3-(trifluoromethoxy)phenyl)imidazo[1,2-b]pyridazine]	5.71	
CN(C)CC(=O)N1CCC(CNc2ccc3ncc(-c4cccc(OC(F)(F)F)c4)n3n2)CC1 [8-45, 2-(dimethylamino)-1-(4-(((3-(3-(trifluoromethoxy)phenyl)imidazo[1,2-b]pyridazin-6-yl)amino)methyl)piperidin-1-yl)ethanone]	7.80	
CC(C)(O)[C@H]1CC[C@H](Nc2ccn3ncc(-c4cccc(OC(F)(F)F)c4)c3n2)CC1 [8-47]	6.69	
C[C@]1(O)CC[C@H](Nc2ccn3ncc(-c4cccc(OC(F)(F)F)c4)c3n2)CC1 [8-48, 1-Methyl-4-((3-(3-(trifluoromethoxy)phenyl)pyrazolo[1,5-a]pyrimidin-5-yl)amino)-trans-cvclohexanol]	6.71	
CO[C@H]1CC[C@H](Nc2ccn3ncc(-c4cccc(OC(F)(F)F)c4)c3n2)CC1 [8-49, 4-(trans-Methoxycyclohexyl)-3-(3-(trifluoromethoxy)phenyl)pyazolo[1,5-a]pyrimidin-5-amine]	6.42	
FC(F)(F)Oc1cccc(-c2cnn3ccc(NC4CCOCC4)nc23)c1 [8-50, N-(Tetrahydro-2H-pyran-4-yl)-3-(3-(trifluoromethoxy)phenyl)pyrazolo[1,5-a]pyrimidin-5-amine]	6.20	
O=S1(=O)CCC(CNc2ccn3ncc(-c4cccc(OC(F)(F)F)c4)c3n2)CC1 [8-51, 4-(((3-(3-(Trifluoromethoxy)phenyl)pyrazolo[1,5-a]pyrimidin-5-y/)amino)methyl)tetrahydro-2H-thiopyran 1,1-dioxide]	6.83	
N[C@H]1CC[C@H](Nc2ccn3ncc(-c4cccc(OC(F)(F)F)c4)c3n2)CC1 [8-52, N-(3-(3-(Trifluoromethoxy)phenyl)pyrazolo[1,5-a]pyrimidin-5-yl)cyclohexane-1,4-trans-diamine]	8.30	
N[C@H]1CCCN(c2ccn3ncc(-c4cccc(OC(F)(F)F)c4)c3n2)C1 [8-53, (S)-1-(3-(3-(Trifluoromethoxy)phenyl)pyrazolo[1,5-a]pyrimidin-5-yl)piperidin-3-amine]	6.88	
CC(C)(O)[C@H]1CC[C@H](Nc2ccn3ncc(-c4cccc(C(F)(F)F)c4)c3n2)CC1 [8-56]	7.77	
CO[C@H]1CC[C@H](Nc2ccn3ncc(-c4cccc(C(F)(F)F)c4)c3n2)CC1 [8-57, 4-(trans-Methoxycyclohexyl)-3-(3-(trifluoromethyl)phenyl)pyrazolo[1,5-a]pyrimidin-5-amine]	7.18	
FC(F)(F)c1cccc(-c2cnn3ccc(NC4CCOCC4)nc23)c1 [8-58, N-(Tetrahydro-2H-pyran-4-yl)-3-(3-(trifluoromethyl)phenyl)pyrazolo[1,5-a]pyrimidin-5-amine]	6.83	
O=S1(=O)CCC(CNc2ccn3ncc(-c4cccc(C(F)(F)F)c4)c3n2)CC1 [8-59, 4-(((3-(3-(Trifluoromethyl)phenyl)pyrazolo[1,5-a]pyrimidin-5-yl)amino)methyl)tetrahydro-2H-thiopyran 1,1-dioxide]	6.95	
CC(C)(O)[C@H]1CC[C@H](Nc2ccn3ncc(-c4cccc(Cl)c4)c3n2)CC1 [8-63]	7.64	
Clc1cccc(-c2cnn3ccc(NC4CCOCC4)nc23)c1 [8-65, 3-(3-Chlorophenyl)-N-(tetrahydro-2H-pyran-4-yl)pyrazolo[1,5-a]pyrimidin-5-amine]	6.73	
